{
  "source": "patent US10952987B2",
  "about": "(BIOPROJET, priority 2012, dated 2021)",
  "key": {"[1]": {"conditions": "adrenalin alone 30 μg/kg intramuscular, anesthetized rabbits"}, "[2]": {"conditions": "adrenalin alone 30 μg/kg intramuscular, anesthetized rabbits", "remark": "listed apart in the source"}, "[3]": {"conditions": "in animals as well as in humans; cited from earlier work"}},
  "data": [
    {"smiles": "CNC[C@H](O)c1ccc(O)c(O)c1", "note": "[adrenalin]", "values": [
      {"measurement": "AUC of second plasma adrenalin peak relative to the first one", "setting": "[1]", "result": "about 20 times"},
      {"measurement": "time of first narrow peak in plasma adrenalin level", "setting": "[1]", "result": "a few minutes following the injection"},
      {"measurement": "time of second, much larger peak in plasma adrenalin level", "setting": "[1]; later than first peak", "result": 20, "unit": "min"},
      {"measurement": "hypertensive episodes", "setting": "[2]", "result": "two hypertensive episodes occurred at the times of the plasma adrenalin peaks"},
      {"measurement": "delay of the bulk of the increase in plasma levels of adrenalin after injection", "setting": "[3]", "result": "about 20 minutes"}
    ]}
  ]
}
